US20160317525A1 (Teva Pharmaceutical Industries, Ltd., priority 2013, published 2016)

Assays:
MOG induced EAE = test: Laquinimod combined with teriflunomide in MOG induced EAE (Example 2); format: in vivo, mice of the C57BL/6 strain; conditions: Day 1-30; for GMS: group mean score; for MMS: mean maximal score; for % inhibition (GMS) / % inhibition (Incidence) / % inhibition (MMS): vs vehicle
CYP2C9 = CYP2C9 (Homo sapiens, UniProt P11712); conditions: O'Connor et al. 2006 and Warneke et al. 2009; cited from earlier work
[1] = system: experimental autoimmune encephalomyelitis; conditions: in mice; Merill et al., 2009; cited from earlier work
[2] = 7 mg/day and 14 mg/day; O'Connor et al. 2011; cited from earlier work
[3] = animal studies; cited from earlier work

CYP2C9, sequence (P11712 whole entry): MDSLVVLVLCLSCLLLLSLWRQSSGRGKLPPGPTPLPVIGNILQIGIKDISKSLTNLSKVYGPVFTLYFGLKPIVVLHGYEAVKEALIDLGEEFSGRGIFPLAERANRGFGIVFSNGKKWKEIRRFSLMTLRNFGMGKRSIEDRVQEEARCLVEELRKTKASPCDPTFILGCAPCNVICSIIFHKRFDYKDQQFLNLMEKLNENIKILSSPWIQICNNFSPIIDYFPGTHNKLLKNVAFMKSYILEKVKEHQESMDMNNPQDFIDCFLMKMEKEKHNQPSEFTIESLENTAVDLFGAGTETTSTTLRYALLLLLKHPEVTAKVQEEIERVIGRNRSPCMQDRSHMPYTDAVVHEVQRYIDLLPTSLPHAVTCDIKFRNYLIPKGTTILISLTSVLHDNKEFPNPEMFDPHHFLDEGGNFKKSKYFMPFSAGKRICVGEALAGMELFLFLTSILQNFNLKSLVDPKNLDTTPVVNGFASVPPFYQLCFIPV

SMILES: CCN(C(=O)c1c(O)c2c(Cl)cccc2n(C)c1=O)c1ccccc1 [Laquinimod, 5-chloro-N-ethyl-4-hydroxy-1-methyl-2-oxo-N-phenyl-1,2-dihydroquinoline-3-carboxamide]
- Duration (MOG induced EAE; Laquinimod 5 mg/kg/day gavage): 5.7 ± 5.1 days
- Incidence (MOG induced EAE; Laquinimod 5 mg/kg/day gavage): 9/15
- Mortality (MOG induced EAE; Laquinimod 5 mg/kg/day gavage): 0/15
- Onset (MOG induced EAE; Laquinimod 5 mg/kg/day gavage): 20.5 ± 6.6 days
- Duration (MOG induced EAE; Laquinimod 25 mg/kg/day gavage): 1.3 ± 3.5 days
- Incidence (MOG induced EAE; Laquinimod 25 mg/kg/day gavage): 2/15
- Mortality (MOG induced EAE; Laquinimod 25 mg/kg/day gavage): 0/15
- Onset (MOG induced EAE; Laquinimod 25 mg/kg/day gavage): 26.3 ± 4.4 days
- GMS (MOG induced EAE; Laquinimod 5 mg/kg/day gavage): 1.02 ± 1.01
- GMS (MOG induced EAE; Laquinimod 25 mg/kg/day gavage): 0.18 ± 0.52
- MMS (MOG induced EAE; Laquinimod 5 mg/kg/day gavage): 1.9 ± 1.8
- MMS (MOG induced EAE; Laquinimod 25 mg/kg/day gavage): 0.4 ± 1.1
- % inhibition (GMS) (MOG induced EAE; Laquinimod 5 mg/kg/day gavage): 58.4%
- % inhibition (Incidence) (MOG induced EAE; Laquinimod 5 mg/kg/day gavage): 35.7%
- % inhibition (MMS) (MOG induced EAE; Laquinimod 5 mg/kg/day gavage): 45.7%
- % inhibition (GMS) (MOG induced EAE; Laquinimod 25 mg/kg/day gavage): 92.7%
- % inhibition (Incidence) (MOG induced EAE; Laquinimod 25 mg/kg/day gavage): 85.7%
- % inhibition (MMS) (MOG induced EAE; Laquinimod 25 mg/kg/day gavage): 88.6%

SMILES: C/C(O)=C(\C#N)C(=O)Nc1ccc(C(F)(F)F)cc1 [Teriflunomide, (2Z)-2-cyano-3-hydroxy-N-[4-(trifluoromethyl)phenyl]but-2-enamide]
- Duration (MOG induced EAE; Teriflunomide 3 mg/kg gavage): 11.6 ± 2.3 days
- Incidence (MOG induced EAE; Teriflunomide 3 mg/kg gavage): 15/15
- Mortality (MOG induced EAE; Teriflunomide 3 mg/kg gavage): 0/15
- Onset (MOG induced EAE; Teriflunomide 3 mg/kg gavage): 14.0 ± 1.5 days
- Duration (MOG induced EAE; Teriflunomide 10 mg/kg gavage): 7.5 ± 5.5 days
- Incidence (MOG induced EAE; Teriflunomide 10 mg/kg gavage): 12/15
- Mortality (MOG induced EAE; Teriflunomide 10 mg/kg gavage): 0/15
- Onset (MOG induced EAE; Teriflunomide 10 mg/kg gavage): 18.3 ± 6.4 days
- GMS (MOG induced EAE; Teriflunomide 3 mg/kg gavage): 2.34 ± 0.65
- GMS (MOG induced EAE; Teriflunomide 10 mg/kg gavage): 1.40 ± 1.18
- MMS (MOG induced EAE; Teriflunomide 3 mg/kg gavage): 3.7 ± 0.6
- MMS (MOG induced EAE; Teriflunomide 10 mg/kg gavage): 2.4 ± 1.7
- % inhibition (GMS) (MOG induced EAE; Teriflunomide 3 mg/kg gavage): 4.5%
- % inhibition (GMS) (MOG induced EAE; Teriflunomide 10 mg/kg gavage): 42.9%
- % inhibition (Incidence) (MOG induced EAE; Teriflunomide 10 mg/kg gavage): 14.3%
- % inhibition (MMS) (MOG induced EAE; Teriflunomide 10 mg/kg gavage): 31.4%
- CYP2C9 inhibition (CYP2C9): inhibit CYP2C9
- minimal effective dose [1]: 3 mg/kg
- annualized relapse rate versus the placebo [2]: reduce the annualized relapse rate
- teratogenicity [3]: teratogenic
